Assay results: paper PMC4467398, “Preclinical antitumor activity of ST7612AA1: a new oral thiol-based histone deacetylase (HDAC) inhibitor” (Oncotarget, 2014)

Test system: DOHH2 and TMD8 DLBCL cells
Experiment: Gene expression profiling (HumanHT-12 v4 BeadChip, limma), ST7612AA1 300 nM 8 hrs vs DMSO
Type: cell-based, human
Details: 300 nM 8 hrs vs DMSO

With `CC(=O)SCCCCC[C@H](NC(=O)[C@H]1CCC(=O)N1)C(=O)Nc1ccccc1` [ST7612AA1] the “log ratio TCEA2 (probe ILMN_1665526)” value was 8.50E-01, the “log ratio TCEAL3 (probe ILMN_1734190)” value was 7.88E-01 and the “log ratio TCERG1 (ILMN_1706839)” value was -8.49E-01. The “log ratio TCFL5 (ILMN_1814247)” value was 6.07E-01, the “log ratio TCTN1 (probe ILMN_1685124)” value was 7.81E-01 and the “log ratio TESK2 (probe ILMN_1654370)” value was 8.37E-01. For the same compound, the “log ratio TFB2M (ILMN_2067709)” value was -7.83E-01, the “log ratio THOC6 (ILMN_1679880)” value was -5.93E-01 and the “log ratio THUMPD2 (ILMN_1787511)” value was -6.05E-01. The “log ratio TIMM10 (ILMN_1765332)” value was -1.04E+00, the “log ratio TLK1 (ILMN_1811029)” value was -9.26E-01 and the “log ratio TMBIM4 (ILMN_1664750)” value was -9.76E-01. The “log ratio TMED1 (ILMN_1693045)” value was -9.13E-01, the “log ratio TMEM14A (probe ILMN_1785191)” value was 7.29E-01 and the “log ratio TMEM49 (probe ILMN_1692754)” value was 8.49E-01. For the same compound, the “log ratio TMEM154 (probe ILMN_2088124)” value was 6.89E-01, the “log ratio TMEM179B (ILMN_3241979)” value was 5.96E-01 and the “log ratio TMEM184B (ILMN_1747460)” value was 6.31E-01. For the same compound, the “log ratio TMEM199 (ILMN_1748481)” value was -6.12E-01, the “log ratio TMOD2 (probe ILMN_3250273)” value was 7.57E-01 and the “log ratio TMPO (ILMN_1768816)” value was -8.22E-01. For the same compound, the “log ratio TNFRSF17 (ILMN_1768016)” value was -1.76E+00, the “log ratio TOB1 (ILMN_1672004)” value was 6.63E-01 and the “log ratio TPRG1L (probe ILMN_1727479)” value was 7.86E-01. For the same compound, the “log ratio TPST1 (probe ILMN_1651950)” value was 7.51E-01, the “log ratio TPST2 (probe ILMN_1695432)” value was 7.18E-01 and the “log ratio TRAFD1 (probe ILMN_1758250)” value was 8.52E-01. The “log ratio TRIM4 (ILMN_2323385)” value was 6.43E-01, the “log ratio TRIM6 (ILMN_1656910)” value was 5.98E-01 and the “log ratio TRIM8 (ILMN_1746704)” value was -8.66E-01. The “log ratio TRIM21 (ILMN_1678054)” value was -8.09E-01, the “log ratio TRIM22 (ILMN_1779252)” value was -8.73E-01 and the “log ratio TRIP6 (ILMN_1713990)” value was -1.16E+00. The “log ratio TRMT1 (ILMN_1812940)” value was -8.45E-01, the “log ratio TRMT11 (ILMN_1805481)” value was -8.20E-01 and the “log ratio TSEN2 (ILMN_1746393)” value was -8.42E-01. The “log ratio TSPAN4 (ILMN_2340027)” value was 5.99E-01, the “log ratio TTC27 (ILMN_1757730)” value was -1.28E+00 and the “log ratio TTLL12 (ILMN_1663113)” value was -6.01E-01. The “log ratio TUBG2 (ILMN_1701052)” value was 6.65E-01, the “log ratio TXNDC14 (ILMN_1799367)” value was -8.38E-01 and the “log ratio TYMS (ILMN_1806040)” value was -1.10E+00. For the same compound, the “log ratio TYSND1 (ILMN_1775677)” value was -1.15E+00, the “log ratio TYW3 (ILMN_1726842)” value was -9.88E-01 and the “log ratio U2AF2 (ILMN_1768930)” value was -1.25E+00. For the same compound, the “log ratio UBE2A (probe ILMN_2307455)” value was 7.18E-01, the “log ratio UBE2C (ILMN_2265654)” value was -7.99E-01 and the “log ratio UBE2D4 (ILMN_1707084)” value was -8.99E-01. The “log ratio UBE2H (ILMN_1757644)” value was 6.49E-01, the “log ratio UBE2J1 (ILMN_1713759)” value was -1.05E+00 and the “log ratio UBTD1 (probe ILMN_1794914)” value was 8.56E-01. For the same compound, the “log ratio UBXN8 (ILMN_1731891)” value was -8.44E-01, the “log ratio UCK2 (ILMN_1768662)” value was -9.43E-01 and the “log ratio UCP2 (probe ILMN_1685625)” value was 7.30E-01. For the same compound, the “log ratio UNC45A (ILMN_1726434)” value was 6.72E-01, the “log ratio UNC84A (probe ILMN_1772316)” value was 7.21E-01 and the “log ratio UNG (ILMN_1683120)” value was -1.39E+00. The “log ratio UPLP (probe ILMN_3236765)” value was 7.46E-01, the “log ratio UPP1 (ILMN_1798256)” value was 6.07E-01 and the “log ratio URB2 (ILMN_3249406)” value was -5.93E-01. For the same compound, the “log ratio USP13 (ILMN_3251526)” value was -5.97E-01, the “log ratio VASH2 (probe ILMN_1692698)” value was 7.31E-01 and the “log ratio VPS8 (probe ILMN_1678268)” value was 7.47E-01. For the same compound, the “log ratio VRK2 (ILMN_1750088)” value was -9.87E-01, the “log ratio VRK3 (ILMN_1771697)” value was 6.75E-01 and the “log ratio WARS2 (ILMN_2323979)” value was -5.97E-01. For the same compound, the “log ratio WDR12 (ILMN_1770692)” value was -7.92E-01, the “log ratio WDR12 (ILMN_2045729)” value was -8.64E-01 and the “log ratio WDR19 (probe ILMN_1655117)” value was 7.77E-01. The “log ratio WIBG (ILMN_1751431)” value was -1.01E+00, the “log ratio WIPI2 (ILMN_2321292)” value was 6.22E-01 and the “log ratio WNK1 (ILMN_1876924)” value was 6.14E-01. The “log ratio YARS2 (ILMN_1782635)” value was -8.22E-01, the “log ratio YDJC (ILMN_1812580)” value was -8.57E-01 and the “log ratio YPEL3 (ILMN_1791147)” value was 6.17E-01.
